Test results published in patent US10508109B2 (priority 2015, dated 2019).
Structures can show the parent of a compound that is named as a salt. Where two headings read alike, the source gives them in different places.

Assays:
A549 = assay: Cell-based assay, anti-proliferative activity (Cell Counting Kit-8, 72 hours); details: Homo sapiens, read-out: IC50 (μM) A549
Method: 100 micro-L of cell suspension was seeded onto 96-well microtiter plate (ViewPlate-96FTC, PerkinElmer). […] Cellular growth was determined using Cell Counting Kit-8 (DOJINDO) at 72 hours after the exposure of the candidate inhibitors. […] Accurate IC50 values were calculated as described previously.

CCD-18Co = assay: as above; details: Homo sapiens, read-out: IC50 (μM) CCD-18Co
Method: (§1) Active candidate inhibitors against SUV39H2 were evaluated for their target-specific cytotoxicity using A549, HCT-116, HFL1, CCD-18Co and PC14. 100 micro-L of cell suspension was seeded onto 96-well microtiter plate (ViewPlate-96FTC, PerkinElmer). The initial cell concentration of A549, HCT-116, HFL1, CCD-18Co and PC14 were 3,000 cells/well, 2,000 cells/well and 2,500 cells/well, respectively. Cellular growth was determined using Cell Counting Kit-8 (DOJINDO) at 72 hours after the exposure of the candidate inhibitors. IC50 was used as an indicator of the anti-proliferative activity of the inhibitors, and calculated by serial dilution method (0, 1.5625, 3.125, 6.25, 12.5, 25, 50, and 100 micro-M). Accurate IC50 values were calculated as described previously.

HCT-116 = assay: as above; details: Homo sapiens, read-out: IC50 (μM) HCT-116
Method: as §1

HFL1 = assay: as above; details: Homo sapiens, read-out: IC50 (μM) HFL1
Method: as §1

SUV39H2 = SUV39H2 (Homo sapiens (Human), UniProt Q9H5I1); details: read-out: IC50 (μM) Suv 39H2 assay
Sequence of SUV39H2 (Q9H5I1 whole entry): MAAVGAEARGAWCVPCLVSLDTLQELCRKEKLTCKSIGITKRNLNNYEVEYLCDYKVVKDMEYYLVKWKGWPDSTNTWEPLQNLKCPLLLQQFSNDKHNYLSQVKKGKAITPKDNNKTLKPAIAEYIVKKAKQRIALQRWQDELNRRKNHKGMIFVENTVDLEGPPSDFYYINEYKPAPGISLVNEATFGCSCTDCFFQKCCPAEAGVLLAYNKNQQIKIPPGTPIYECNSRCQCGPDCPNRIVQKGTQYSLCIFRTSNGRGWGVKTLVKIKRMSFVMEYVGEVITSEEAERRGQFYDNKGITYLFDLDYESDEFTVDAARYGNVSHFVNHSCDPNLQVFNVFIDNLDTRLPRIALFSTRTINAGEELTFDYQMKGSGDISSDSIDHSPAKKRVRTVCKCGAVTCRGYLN

[1] = A549 cells, Cell Counting Kit-8, 72 hours
[2] = CCD-18Co cells, Cell Counting Kit-8, 72 hours
[3] = HCT-116 cells, Cell Counting Kit-8, 72 hours
[4] = HFL1 cells, Cell Counting Kit-8, 72 hours

## COc1ccc(-c2cn3ccc(N4CCCC4)cc3n2)cc1C#N [Example 21, 2-methoxy-5-(7-(pyrrolidin-1-yl)imidazo[1,2-a]pyridin-2-yl)benzonitrile hydrobromide]
A549; [1]
  IC50: 4.2 µM
CCD-18Co; [2]
  IC50: 5.5 µM
HCT-116; [3]
  IC50: 3.1 µM
HFL1; [4]
  IC50: 2.5 µM
SUV39H2; enzyme assay
  IC50: 0.0733 µM

## COc1cc(OC)c(-c2cn3ccc(N4CCCCC4)cc3n2)cc1Cl [Example 25, 2-(5-chloro-2,4-dimethoxyphenyl)-7-(piperidin-1-yl)imidazo)[1,2-a]pyridine hydrobromide]
A549; [1]
  IC50: 3 µM
CCD-18Co; [2]
  IC50: 2.3 µM
HCT-116; [3]
  IC50: 2 µM
HFL1; [4]
  IC50: 1.4 µM
SUV39H2; enzyme assay
  IC50: 0.0122 µM

## COc1cc(OC)c(-c2cn3ccc(N4CCC(NC(=O)OC(C)(C)C)C4)nc3n2)cc1Cl (stereo not drawn) [Example 26, tert-butyl (1-(2-(5-chloro-2,4-dimethoxyphenyl)imidazo[1,2-a]pyrimidin-7-yl)pyrrolidin-3-yl)carbamate]
A549; [1]
  IC50: 7.9 µM
CCD-18Co; [2]
  IC50: 7.9 µM
HCT-116; [3]
  IC50: 13 µM
HFL1; [4]
  IC50: 6.7 µM
SUV39H2; enzyme assay
  IC50: 0.017 µM

## COc1cc(OC)c(-c2cn3ccc(-c4cncc(N)c4)cc3n2)cc1Cl [Example 27, 5-[2-(5-chloro-2,4-dimethoxyphenyl)imidazo[1,2-a]pyridin-7-yl]pyridin-3-amine]
A549; [1]
  IC50: 1.9 µM
CCD-18Co; [2]
  IC50: 3.3 µM
HCT-116; [3]
  IC50: 3.3 µM
HFL1; [4]
  IC50: 1.8 µM
SUV39H2; enzyme assay
  IC50: 0.0396 µM

## COc1cc(OC)c(-c2cn3ccc(N4CCN(CCNC(=O)OC(C)(C)C)CC4)cc3n2)cc1Cl [Example 28, tert-butyl (2-(4-(2-(5-chloro-2,4-dimethoxyphenyl)imidazo[1,2-a]pyridin-7-yl)piperazin-1-yl)ethyl)carbamate dihydrochloride]
A549; [1]
  IC50: 3.6 µM
CCD-18Co; [2]
  IC50: 4 µM
HCT-116; [3]
  IC50: 2.8 µM
HFL1; [4]
  IC50: 3.4 µM
SUV39H2; enzyme assay
  IC50: 0.021 µM

## COc1cc(OC)c(-c2cn3ccc(N4CCN(CCN)CC4)cc3n2)cc1Cl [Example 29, 2-(4-(2-(5-chloro-2,4-dimethoxyphenyl)imidazo[1,2-a]pyridin-7-yl)piperazin-1-yl)ethanamine trihydrochloride]
A549; A549, 72 h
  IC50: 7 µM
CCD-18Co; CCD-18Co, 72 h
  IC50: 12 µM
HCT-116; HCT-116, 72 h
  IC50: 9.7 µM
HFL1; HFL1, 72 h
  IC50: 4.5 µM
SUV39H2
  IC50: 0.012 µM

## COc1cc(OC)c(-c2cn3ccc(N4CCC(CN)CC4)nc3n2)cc1Cl [Example 31, (1-(2-(5-chloro-2,4-dimethoxyphenyl)imidazo[1,2-a]pyrimidin-7-yl)piperidin-4-yl)methanamine hydrochloride]
A549; A549, 72 h
  IC50: 18 µM
CCD-18Co; CCD-18Co, 72 h
  IC50: 23 µM
HCT-116; HCT-116, 72 h
  IC50: 22 µM
HFL1; HFL1, 72 h
  IC50: 9.3 µM
SUV39H2
  IC50: 0.0489 µM

## COc1cc(OC)c(-c2cn3ccc(N4CCC(CNC(=O)OC(C)(C)C)CC4)nc3n2)cc1Cl [Example 32, tert-butyl ((1-(2-(5-chloro-2,4-dimethoxyphenyl)imidazo[1,2-a]pyrimidin-7-yl)piperidin-4-yl)methyl)carbamate]
A549; [1]
  IC50: 6.7 µM
CCD-18Co; [2]
  IC50: 6.3 µM
HCT-116; [3]
  IC50: 8.4 µM
HFL1; [4]
  IC50: 4.6 µM
SUV39H2; enzyme assay
  IC50: 0.037 µM

## COc1cc(OC)c(-c2cn3ccc(N4CCC(N)C4)nc3n2)cc1Cl (stereo not drawn) [Example 34, 1-(2-(5-chloro-2,4-dimethoxyphenyl)imidazo[1,2-a]pyrimidin-7-yl)pyrrolidin-3-amine hydrochloride]
A549; A549, 72 h
  IC50: 12 µM
CCD-18Co; CCD-18Co, 72 h
  IC50: 11 µM
HCT-116; HCT-116, 72 h
  IC50: 9.6 µM
HFL1; HFL1, 72 h
  IC50: 4.4 µM
SUV39H2
  IC50: 0.0273 µM

## COc1cc(OC)c(-c2cn3ccc(NCCCN)cc3n2)cc1Cl [Example 35, N^1-(2-(5-chloro-2,4-dimethoxyphenyl)imidazo[1,2-a]pyridin-7-yl)propane-1,3-diamine]
A549; [1]
  IC50: 14 µM
CCD-18Co; [2]
  IC50: 14 µM
HCT-116; [3]
  IC50: 9.8 µM
HFL1; [4]
  IC50: 7 µM
SUV39H2; enzyme assay
  IC50: 0.0124 µM

## COc1cc(OC)c(-c2cn3ccc(N4CCC(NC(=O)OC(C)(C)C)CC4)nc3n2)cc1Cl [Example 36, tert-butyl (1-(2-(5-chloro-2,4-dimethoxyphenyl)imidazo[1,2-a]pyrimidin-7-yl)piperidin-4-yl)carbamate]
A549; [1]
  IC50: 5.6 µM
CCD-18Co; [2]
  IC50: 3.8 µM
HCT-116; [3]
  IC50: 4.1 µM
HFL1; [4]
  IC50: 3.2 µM
SUV39H2; enzyme assay
  IC50: 0.0552 µM

## COc1cc(OC)c(-c2cn3ccc(N4CCC(N)CC4)nc3n2)cc1Cl [Example 42, 1-(2-(5-chloro-2,4-dimethoxyphenyl)imidazo[1,2-a]pyrimidin-7-yl)-piperidin-4-amine hydrochloride]
A549; A549, 72 h
  IC50: 10 µM
CCD-18Co; CCD-18Co, 72 h
  IC50: 13 µM
HCT-116; HCT-116, 72 h
  IC50: 6.6 µM
HFL1; HFL1, 72 h
  IC50: 4.2 µM
SUV39H2
  IC50: 0.079 µM

## COc1cc(OC)c(-c2cn3ccc(N4CCN(CCO)CC4)nc3n2)cc1Cl [Example 45, 2-(4-(2-(5-chloro-2,4-dimethoxyphenyl)imidazo[1,2-a]pyrimidin-7-yl)-piperazin-1-yl)ethanol]
A549; [1]
  IC50: 18 µM
CCD-18Co; [2]
  IC50: 21 µM
HCT-116; [3]
  IC50: 12 µM
HFL1; [4]
  IC50: 17 µM
SUV39H2; enzyme assay
  IC50: 0.0365 µM

## COc1cc(OC)c(-c2cn3ccc(N(C)CCNC(=O)OC(C)(C)C)cc3n2)cc1Cl [Example 48, tert-butyl (2-((2-(5-chloro-2,4-dimethoxyphenyl)imidazo[1,2-a]pyridine-7-yl)(methyl)aimno)ethyl)carbamate]
A549; [1]
  IC50: 8.2 µM
CCD-18Co; [2]
  IC50: 6.4 µM
HCT-116; [3]
  IC50: 7.3 µM
HFL1; [4]
  IC50: 3.8 µM
SUV39H2; enzyme assay
  IC50: 0.0124 µM

## COc1cc(OC)c(-c2cn3cnc(N)cc3n2)cc1Cl [Example 51, 2-(5-chloro-2,4-dimethoxyphenyl)imidazo[1,2-c]pyrimidin-7-amine]
A549; [1]
  IC50: 9.8 µM
CCD-18Co; [2]
  IC50: 6.8 µM
HCT-116; [3]
  IC50: 8.9 µM
HFL1; [4]
  IC50: 8.4 µM
SUV39H2; enzyme assay
  IC50: 0.0531 µM

## COc1cc(OC)c(-c2cn3ccc(C4=CCNCC4)cc3n2)cc1Cl [Example 52, 2-(5-chloro-2,4-dimethoxyphenyl)-7-(1,2,3,6-tetrahydropyridin-4-yl)imidazo[1,2-a]pyridine]
A549; [1]
  IC50: 1.5 µM
CCD-18Co; [2]
  IC50: 1.3 µM
HCT-116; [3]
  IC50: 1.4 µM
HFL1; [4]
  IC50: 1.6 µM
SUV39H2; enzyme assay
  IC50: 0.0616 µM

## COc1cc(OC(C)C)c(-c2cn3ccc(N4CCCC4)cc3n2)cc1Br [Example 53, hydrobromide]
A549; [1]
  IC50: 2.5 µM
CCD-18Co; [2]
  IC50: 2.1 µM
HCT-116; [3]
  IC50: 2.4 µM
HFL1; [4]
  IC50: 1.9 µM
SUV39H2; enzyme assay
  IC50: 0.0181 µM

## COc1cc(OC)c(-c2cn3ccc(N4CC[C@@H](N)C4)nc3n2)cc1Cl [Example 55, (R)-1-(2-(5-Chloro-2,4-dimethoxyphenyl)imidazo[1,2-a]pyrimidin-7-yl)pyrrolidin-3-amine hydrochloride]
A549; A549, 72 h
  IC50: 12 µM
CCD-18Co; CCD-18Co, 72 h
  IC50: 14 µM
HCT-116; HCT-116, 72 h
  IC50: 10 µM
HFL1; HFL1, 72 h
  IC50: 4.8 µM
SUV39H2
  IC50: 0.0262 µM

## COc1cc(OC)c(-c2cn3ccc(N4CC[C@H](NC(=O)OC(C)(C)C)C4)nc3n2)cc1Cl [Example 56, (S)-tert-butyl (1-(2-(5-chloro-2,4-dimethoxyphenyl)imidazo[1,2-a]-pyrimidin-7-yl)pyrrolidin-3-yl)carbamate]
A549; [1]
  IC50: 7.5 µM
CCD-18Co; [2]
  IC50: 7 µM
HCT-116; [3]
  IC50: 7 µM
HFL1; [4]
  IC50: 5.7 µM
SUV39H2; enzyme assay
  IC50: 0.0168 µM

## COc1cc(OC)c(-c2cn3ccc(N4CC[C@@H](NC(=O)OC(C)(C)C)C4)nc3n2)cc1Cl [Example 57, (R)-tert-Butyl (1-(2-(5-chloro-2,4-dimethoxyphenyl)imidazo[1,2-a]pyrimidin-7-yl)-pyrrolidin-3-yl)carbamate]
A549; [1]
  IC50: 7.1 µM
CCD-18Co; [2]
  IC50: 4.8 µM
HCT-116; [3]
  IC50: 7.2 µM
HFL1; [4]
  IC50: 4 µM
SUV39H2; enzyme assay
  IC50: 0.0108 µM

## COc1cc(OC)c(-c2cn3ccc(N4CC[C@H](N)C4)nc3n2)cc1Cl [Example 58, (S)-1-(2-(5-chloro-2,4-dimethoxyphenyl)imidazo[1,2-a]pyrimidin-7-yl)-pyrrolidin-3-amine hydrochloride]
A549; A549, 72 h
  IC50: 14 µM
CCD-18Co; CCD-18Co, 72 h
  IC50: 13 µM
HCT-116; HCT-116, 72 h
  IC50: 9.4 µM
HFL1; HFL1, 72 h
  IC50: 6.2 µM
SUV39H2
  IC50: 0.0296 µM

## COc1cc(OC(C)C)c(-c2cn3ccc(N4CC[C@H](N)C4)cc3n2)cc1Br [Example 59, (S)-1-(2-(5-bromo-2-isopropoxy-4-methoxyphenyl)imidazo[1,2-a]pyridin-7-yl)pyrrolidin-3-amine hydrochloride]
A549; A549, 72 h
  IC50: 3.4 µM
CCD-18Co; CCD-18Co, 72 h
  IC50: 3.7 µM
HCT-116; HCT-116, 72 h
  IC50: 2.6 µM
HFL1; HFL1, 72 h
  IC50: 1.8 µM
SUV39H2
  IC50: 0.0112 µM

## COc1cc(OC)c(-c2cn3ccc(N4CCC(NC(=O)CCNC(=O)OC(C)(C)C)C4)nc3n2)cc1Br (stereo not drawn) [Example 65]
A549; [1]
  IC50: 28 µM
CCD-18Co; [2]
  IC50: 26 µM
HCT-116; [3]
  IC50: 17 µM
HFL1; [4]
  IC50: 27 µM
SUV39H2; enzyme assay
  IC50: 0.014 µM

## COc1cc(OC)c(-c2cn3ccc(N4CCC(CCN)CC4)nc3n2)cc1Cl [Example 67]
A549; [1]
  IC50: 12 µM
CCD-18Co; [2]
  IC50: 13 µM
HCT-116; [3]
  IC50: 13 µM
HFL1; [4]
  IC50: 9.6 µM
SUV39H2; enzyme assay
  IC50: 0.0216 µM
